Laboratory results taken from US10662204B2 (PFIZER INC., priority 2018, dated 2020).

Experiments:
[1] = molecular target: T1, GDP-loaded KRAS (1-169) G12C, C51S, C80L, C118S (Homo sapiens, UniProt P01116, C118S/C51S/C80L/G12C); assay: Mass Spectrometry Reactivity Assay (MSRA): covalent adduct of compound and KRAS G12C, Percent Modification; type: binding; details: for MSRA (% modification) 5.0 μM 0.25 hr: 5.0 μM compound; for MSRA (% modification) 10 μM 0.25 hr / MSRA (% modification) 10 μM 0.50 hr: 10 μM compound
T1 construct: GDP-loaded KRAS (1-169) G12C, C51S, C80L, C118S
How it was run: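 GDP-loaded KRAS(1-169) G12C/C51S/C80L/C118S at 5 μM in 25 mM Hepes pH 7.5, 200 mM NaCl, 5% glycerol incubated at RT with compound (typically 5 or 10 μM final, 1% DMSO). Quenched in formic acid at 1-60 min; intact-protein LC-TOF MS gives % modification = modified/(modified+unmodified).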

KRAS G12C = KRAS G12C (Homo sapiens, UniProt P01116, G12C); assay: Cell Activity Assay: accumulation of GDP-bound KRAS G12C in MIAPaCa-2 cells (Raf-1 RBD capture, MSD readout); type: cell-based; set-up: endogenous in cells; host or cells: MIAPaCa-2; details: 6 hours, assay limit is 30.00
How it was run: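 MIAPaCa-2 cells exposed 6 h at 37 °C to 3-fold compound dilutions (0.3% DMSO final), then lysed. Active GTP-KRAS captured on Raf-1 RBD-coated plates, detected with anti-pan-Ras and SULFO-TAG secondary by MSD electrochemiluminescence. Signal normalized to DMSO and maximum inhibition; IC50 from 4-parameter fit.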

| MSRA (% modification) 5.0 μM 0.25 hr [1] [%] | IC50 (KRAS G12C) [µM] | MSRA (% modification) 10 μM 0.25 hr [1] [%] | MSRA (% modification) 10 μM 0.50 hr [1] [%] | SMILES |
| --- | --- | --- | --- | --- |
|  | 0.394 | 44 | 69 | C=CC(=O)N1CCN(c2ncnc3c(Oc4c(Br)c(C)cc5[nH]ncc45)nccc23)CC1 [Example 13A, 1-(4-{8-[(5-bromo-6-methyl-1H-indazol-4-yl)oxy]pyrido[3,4-d]pyrimidin-4-yl}piperazin-1-yl)prop-2-en-1-one] |
| 19 | 0.16 | 74 |  | C=CC(=O)N1CCN(c2nc(OC[C@@H]3CCCN3C)nc3c(Oc4c(C)c(Cl)cc5[nH]ncc45)nccc23)CC1 [Example 13B, 1-[4-(8-[(6-chloro-5-methyl-1H-indazol-4-yl)oxy]-2-{[(2S)-1-methylpyrrolidin-2-yl]methoxy}pyrido[3,4-d]pyrimidin-4-yl)piperazin-1-yl]prop-2-en-1-one] |
|  | 17 |  | 26 | C=CC(=O)N1CCN(c2nc(NCCC(=O)NC)nc3c(Oc4c(C)ccc5[nH]ncc45)cccc23)CC1 [Example 13F, N^3-{4-(4-acryloylpiperazin-1-yl)-8-[(5-methyl-1H-indazol-4-yl)oxy]quinazolin-2-yl}-N-methyl-β-alaninamide] |
| 70 | 0.16 | 78 | 80 | C=CC(=O)N1CCN(c2nc(OCC(C)(C)O)nc3c(Oc4c(Cl)c(F)cc5[nH]ncc45)nc(Cl)cc23)CC1 [Example 13G, 1-(4-{6-chloro-8-[(5-chloro-6-fluoro-1H-indazol-4-yl)oxy]-2-(2-hydroxy-2-methylpropoxy)pyrido[3,4-d]pyrimidin-4-yl}piperazin-1-yl)prop-2-en-1-one] |
| 65 | 0.311 | 83 |  | C=CC(=O)N1CCN(c2nc(OC[C@@H]3C[C@@H](OC)CN3C)nc3c(Oc4c(Cl)c(F)cc5[nH]ncc45)nccc23)CC1 [Example 13H, 1-[4-(8-[(5-chloro-6-fluoro-1H-indazol-4-yl)oxy]-2-{[(2S,4R)-4-methoxy-1-methylpyrrolidin-2-yl]methoxy}pyrido[3,4-d]pyrimidin-4-yl)piperazin-1-yl]prop-2-en-1-one] |
| 46 | 0.545 |  | 67 | C=CC(=O)N1CCN(c2ncnc3c(Oc4c(C)c(Cl)cc5[nH]ncc45)nccc23)CC1 [Example 14A, 1-(4-{8-[(6-chloro-5-methyl-1H-indazol-4-yl)oxy]pyrido[3,4-d]pyrimidin-4-yl}piperazin-1-yl)prop-2-en-1-one] |
|  | 29 |  | 12 | C=CC(=O)N1CCN(c2nc(N(C)CCC(=O)NC)nc3c(Oc4c(C)ccc5[nH]ncc45)cccc23)CC1 [Example 14F, N^3-{4-(4-acryloylpiperazin-1-yl)-8-[(5-methyl-1H-indazol-4-yl)oxy]quinazolin-2-yl}-N,N^3-dimethyl-β-alaninamide] |
| 78 | 0.401 | 79 |  | C=CC(=O)N1CCN(c2nc(OCC3CCC(=O)N3C)nc3c(Oc4c(Cl)c(F)cc5[nH]ncc45)nc(Cl)cc23)CC1 (stereo not shown) [Example 14G, 5-[({4-(4-acryloylpiperazin-1-yl)-6-chloro-8-[(5-chloro-6-fluoro-1H-indazol-4-yl)oxy]pyrido[3,4-d]pyrimidin-2-yl}oxy)methyl]-1-methylpyrrolidin-2-one] |
|  | > 30 |  | 13 | C=CC(=O)N1CCN(c2nc(NC3CNC(=O)C3)nc3c(Oc4c(C)ccc5[nH]ncc45)cccc23)CC1 (stereo not shown) [Example 15F, 4-({4-(4-acryloylpiperazin-1-yl)-8-[(5-methyl-1H-indazol-4-yl)oxy]quinazolin-2-yl}amino)pyrrolidin-2-one] |
| 25 | 0.461 | 54 |  | C=CC(=O)N1CCN(c2nc(OC[C@@]3(F)CCN(C)C3)nc3c(Oc4c(Cl)c(F)cc5[nH]ncc45)nccc23)CC1 [Example 15H, 1-[4-(8-[(5-chloro-6-fluoro-1H-indazol-4-yl)oxy]-2-{[(3R)-3-fluoro-1-methylpyrrolidin-3-yl]methoxy}pyrido[3,4-d]pyrimidin-4-yl)piperazin-1-yl]prop-2-en-1-one] |

The next lines start with the compound.

| SMILES | MSRA (% modification) 5.0 μM 0.25 hr [1] [%] | IC50 (KRAS G12C) [µM] | MSRA (% modification) 10 μM 0.25 hr [1] [%] | MSRA (% modification) 10 μM 0.50 hr [1] [%] |
| --- | --- | --- | --- | --- |
| C=CC(=O)N1CCN(c2nc(OCC3(F)CCN(C)CC3)nc3c(Oc4c(Cl)c(F)cc5[nH]ncc45)nccc23)CC1 [Example 12I, 1-(4-{8-[(5-chloro-6-fluoro-1H-indazol-4-yl)oxy]-2-[(4-fluoro-1-methyl-piperidin-4-yl)methoxy]pyrido [3,4-d]pyrimidin-4-yl}piperazin-1-yl)prop-2-en-1-one] | 78 | 0.12 |  |  |
| C=CC(=O)N1CCN(c2ncnc3c(Oc4c(C)ccc5[nH]ncc45)cc(Br)cc23)CC1 [Example 13C, 1-(4-{6-bromo-8-[(5-methyl-1H-indazol-4-yl)oxy]quinazolin-4-yl}piperazin-1-yl)prop-2-en-1-one] |  | 3.74 |  | 36 |
| C=CC(=O)N1CCN(c2nc(OCCN(C)C)nc3c(Oc4c(Cl)c(C)cc5[nH]ncc45)cc(Cl)cc23)CC1 [Example 13E, 1-(4-{6-chloro-8-[(5-chloro-6-methyl-1H-indazol-4-yl)oxy]-2-[2-(dimethylamino)ethoxy]quinazolin-4-yl}piperazin-1-yl)prop-2-en-1-one] |  | 0.452 | 75 | 79 |
| C=CC(=O)N1CCN(c2nc(Oc3cccnc3)nc3c(Oc4c(Cl)c(F)cc5[nH]ncc45)nccc23)CC1 [Example 13I, 1-(4-{8-[(5-chloro-6-fluoro-1H-indazol-4-yl)oxy]-2-(pyridin-3-yloxy)pyrido [3,4-d]pyrimidin-4-yl}piperazin-1-yl)prop-2-en-1-one] | 44 | 0.777 |  |  |
| C=CC(=O)N1CCN(c2ncnc3c(Oc4c(C)ccc5[nH]ncc45)cc(C#N)cc23)CC1 [Example 14C] |  | 27.8 |  | 20 |
| C=CC(=O)N1CCN(c2nc(N3CC(N(C)C)C3)nc3c(Oc4c(Cl)c(C)cc5[nH]ncc45)cccc23)CC1 [Example 14E, 1-(4-{8-[(5-chloro-6-methyl-1H-indazol-4-yl)oxy]-2-[3-(dimethylamino)azetidin-1-yl]quinazolin-4-yl}piperazin-1-yl)prop-2-en-1-one] |  | 1.01 |  | 65 |
| C=CC(=O)N1CCN(c2nc(OC[C@]3(F)CCN(C)C3)nc3c(Oc4c(Cl)c(F)cc5[nH]ncc45)nccc23)CC1 [Example 14H, 1-[4-(8-[(5-chloro-6-fluoro-1H-indazol-4-yl)oxy]-2-{[(3S)-3-fluoro-1-methylpyrrolidin-3-yl]methoxy}pyrido[3,4-d]pyrimidin-4-yl)piperazin-1-yl]prop-2-en-1-one] | 52 | 0.082 | 81 |  |
| C=CC(=O)N1CCN(c2nc(Oc3cccnc3C)nc3c(Oc4c(Cl)c(F)cc5[nH]ncc45)nccc23)CC1 [Example 14I, 1-(4-{8-[(5-chloro-6-fluoro-1H-indazol-4-yl)oxy]-2-[(2-methyl-pyridin-3-yl)oxy]pyrido [3,4-d]pyrimidin-4-yl}piperazin-1-yl)prop-2-en-1-one] | 14 | 0.366 |  |  |
| C=CC(=O)N1CCN(c2ncnc3c(Oc4c(Cl)c(C)cc5[nH]ncc45)nc(Cl)cc23)CC1 [Example 15A, 1-(4-{6-chloro-8-[(5-chloro-6-methyl-1H-indazol-4-yl)oxy]pyrido[3,4-d]pyrimidin-4-yl}piperazin-1-yl)prop-2-en-1-one] |  | 0.468 |  | 67 |
| C=CC(=O)N1CCN(c2nc(OCCN(C)C)nc3c(Oc4c(Cl)c(C)cc5[nH]ncc45)cccc23)CC1 [Example 15E, 1-(4-{8-[(5-chloro-6-methyl-1H-indazol-4-yl)oxy]-2-[2-(dimethylamino)ethoxy]quinazolin-4-yl}piperazin-1-yl)prop-2-en-1-one] | 56 | 0.51 | 59 | 74 |
| C=CC(=O)N1CCN(c2nc(OCC3(F)CCN(C)CC3)nc3c(Oc4c(Cl)c(F)cc5[nH]ncc45)nc(Cl)cc23)CC1 [Example 15G, 1-(4-{6-chloro-8-[(5-chloro-6-fluoro-1H-indazol-4-yl)oxy]-2-[(4-fluoro-1-methylpiperidin-4-yl)methoxy]pyrido[3,4-d]pyrimidin-4-yl}piperazin-1-yl)prop-2-en-1-one] | 80 | 0.019 |  |  |
| C=CC(=O)N1CCN(c2nc(OC[C@@]3(F)CCCN(C)C3)nc3c(Oc4c(Cl)c(F)cc5[nH]ncc45)nccc23)CC1 [Example 15I, 1-[4-(8-[(5-chloro-6-fluoro-1H-indazol-4-yl)oxy]-2-{[(3R)-3-fluoro-1-methyl-piperidin-3-yl]methoxy}pyrido [3,4-d]pyrimidin-4-yl)piperazin-1-yl]prop-2-en-1-one] | 81 | 0.126 |  |  |
| C=CC(=O)N1CCN(c2ncnc3c(Oc4c(F)c(C)c(F)c5[nH]ncc45)nccc23)CC1 [Example 16A, 1-(4-{8-[(5,7-difluoro-6-methyl-1H-indazol-4-yl)oxy]pyrido[3,4-d]pyrimidin-4-yl}piperazin-1-yl)prop-2-en-1-one] |  | 29.6 |  | 7 |
